The NIST ThermoML archive (doi:10.1016/j.jct.2017.03.022)

How the values were obtained:
[1] = 101 kPa, Liquid, Vibrating tube method
[2] = xn = mol fraction of the nth substance listed; settings: 101 kPa, Liquid; for speed of sound: Frequency=3 MHz, Single path-length method; for mass density: Vibrating tube method

OCCCO [propan-1,3-diol]
[1]
Settings	mass density [kg/m3]
303.15 K	1046.56
308.15 K	1043.43
313.15 K	1040.28
318.15 K	1037.11
323.15 K	1033.92

CC(O)CO (stereo not given) [1,2-propanediol] + O=C1CCCN1
[2], x2 = 0
Settings	mass density [kg/m3]	speed of sound [m/s]
303.15 K	1028.94	1496.6
308.15 K	1025.2	1482.6
313.15 K	1021.43	1468.5
318.15 K	1017.63	1454.3
323.15 K	1013.79	1440.1

O=C1CCCN1 [2-pyrrolidinone] + OCCCO
[2], x1 = 1
Settings	mass density [kg/m3]	speed of sound [m/s]
303.15 K	1103.07	1617.7
308.15 K	1098.99	1601.3
313.15 K	1094.9	1585.4
318.15 K	1090.82	1570.4
323.15 K	1086.75	1553.5
